The results in this text go back to ChEMBL document CHEMBL1140465, “The design and preliminary structure-activity relationship studies of benzotriazines as potent inhibitors of Abl and Abl-T315I enzymes” (Bioorg Med Chem Lett, 2007).

Assay [1] is filed under the species Homo sapiens. The assay is described as follows: Apoptosis inducing effect in Bcr-Abl-T315I cells assessed as caspase 3 activation after 4 hrs. The format is functional, cell-based.
The test system of assay [2] is BaF3. Briefly: Apoptosis inducing activity in Ba/F3 cells assessed as caspase 3 activation after 4 hrs. Type of assay: functional, cell-based. The settings on record: Mus musculus.
Assay [3] deals with BaF3. The assay is described as follows: Blockade of full length human Bcr-Abl expressed in mouse Ba/F3 cells assessed as inhibition of STAT5 phosphorylation. The format is cell-based.
The species entered for assay [4] is Homo sapiens. The assay is described as follows: Apoptosis inducing activity in Bcr-Abl-T315I cells assessed as induction of DNA fragmentation at 2 uM after 24 hrs. Type of assay: functional, cell-based.
Assay [5] has as its system Bcr-Abl. Briefly: Apoptosis inducing activity in Bcr-Abl cells assessed as caspase 3 activation after 4 hrs. Type of assay: functional, cell-based. The following applies: Homo sapiens.
Assay [6] relates to Bcr-Abl. The assay is described as follows: Apoptosis inducing activity in Bcr-Abl cells assessed as induction of DNA fragmentation at 2 uM after 24 hrs. The format is functional, cell-based. The following applies: Homo sapiens.
The subject of assay [7] is BaF3. Briefly: Apoptosis inducing activity in Ba/F3 cells assessed as induction of DNA fragmentation at 2 uM after 24 hrs. Type of assay: functional, cell-based. The following applies: Mus musculus.
In assay [8] the test system is BaF3. Briefly: Blockade of Bcr-Abl-T315I mutant expressed in mouse Ba/F3 cells assessed as inhibition of […] phosphorylation. The format is cell-based. The settings on record: Homo sapiens.
For assay [9], the target named is Tyrosine-protein kinase ABL1 (Homo sapiens, UniProt P00519).
For assay [10], the target named is Tyrosine-protein kinase ABL1 (Homo sapiens, UniProt P00519, T315I). Briefly: Inhibition of Abl-T315I mutant.
Assay [11] deals with Proto-oncogene tyrosine-protein kinase Src (Homo sapiens, UniProt P12931). The assay is described as follows: Inhibition of Src.
Chain of Proto-oncogene tyrosine-protein kinase Src (P12931 2-536 limits assumed): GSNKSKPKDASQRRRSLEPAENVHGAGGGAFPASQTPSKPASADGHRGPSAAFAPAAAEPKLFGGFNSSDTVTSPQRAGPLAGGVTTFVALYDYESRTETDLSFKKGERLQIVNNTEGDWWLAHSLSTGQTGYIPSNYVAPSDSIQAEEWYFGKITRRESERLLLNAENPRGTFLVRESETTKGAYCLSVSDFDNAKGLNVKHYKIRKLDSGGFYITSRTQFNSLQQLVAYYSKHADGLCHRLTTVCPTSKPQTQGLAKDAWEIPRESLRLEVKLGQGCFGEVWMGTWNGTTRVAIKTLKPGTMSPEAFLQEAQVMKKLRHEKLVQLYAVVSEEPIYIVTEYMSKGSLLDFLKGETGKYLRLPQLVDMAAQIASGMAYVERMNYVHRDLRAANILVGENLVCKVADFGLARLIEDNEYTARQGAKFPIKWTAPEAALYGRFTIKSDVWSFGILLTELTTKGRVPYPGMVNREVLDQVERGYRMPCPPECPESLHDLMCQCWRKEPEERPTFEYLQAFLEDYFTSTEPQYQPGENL

pKi: −log10 of the molar value. Activity calls are given as the source filed them. No cut-off for these calls is given here.

By pKi is commonly meant −log10 of the Ki, conventionally taken in molar units. Higher therefore signals a small Ki.

`Cc1cc(-c2cc(O)ccc2Cl)cc2nnc(Nc3ccc(S(=O)(=O)NCCN4CCCC4)cc3)nc12`: the result in assay [1], in assay [3], in assay [4], in assay [5], in [6] and in assay [8] was Active. Further, the outcome in assay [2] and in assay [7] was inactive.

Regarding `Cc1cccc(C)c1-c1cc(C)c2nc(Nc3ccc(OCCN4CCCC4)cc3)nnc2c1`, the figures for the negative logarithm of the Ki (pKi) in assay [9] and in [10] were 7.96 and 5.37, respectively.

For `Cc1cc(-c2cc(O)ccc2Cl)cc2nnc(Nc3ccc(OCCN4CCCC4)cc3)nc12`, the pKi in assay [11] was 8.89.
